Measured values taken from article PMC6432920 (Journal of medicinal chemistry, 2017).
Where two headings read alike, the source gives them in different places.

Assays:
[1] = human liver microsomes; cited from earlier work
[2] = one dose treatment, nude mice bearing MCF-7 xenograft tumors; cited from earlier work

## COc1ccc2c(c1)NC(=O)CN2c1nc(C)nc2ccccc12 [Compound 2, 7-Methoxy-4-(2-methylquinazolin-4-yl)-3,4-dihydroquinoxalin-2(1H)-one]
0.25 mg/kg iv Q5D × 4
  body weight end: 25.96 ± 1.54 g
  body weight start: 22.44 ± 1.27 g
0.5 mg/kg iv Q5D × 4
  body weight end: 23.85 ± 1.57 g
  body weight start: 22.28 ± 1.33 g
1.0 mg/kg iv Q5D × 4
  body weight end: 20.50 ± 3.27 g
  body weight start: 22.13 ± 1.24 g
mice, 1.0 mg/kg
  signs of toxicity: without obvious signs of toxicity
[1]
  metabolic stability in vitro t1/2: 55 min
[2]
  lethal dose: 4 mg/kg
